Laboratory results as given in patent US7691901B2, “Carotenoid analogs or derivatives for the inhibition and amelioration of inflammation” (Cardax Pharmaceuticals Inc., priority 2004, dated 2010).

Tested on: lipid peroxidation products
Experiment: Thioglycollate/Zymosan-induced peritonitis model: lipid oxidation products in peritoneal lavage by electrospray ionization tandem mass spectrometry
Assay type: in vivo, mice
Details: for 13-HODE MEAN / 13-HODE MEDIAN / Prostaglandin F2α (PGF2α) MEAN / Prostaglandin F2α (PGF2α) MEDIAN / 9-HETE/AA (ratio) MEAN / 9-HETE/AA (ratio) MEDIAN / 9-HODE MEAN / 9-HODE MEDIAN / 9-HETE MEAN / 9-HETE MEDIAN / Linoleic Acid MEAN / Linoleic Acid MEDIAN / Arachidonic Acid MEAN / Arachidonic Acid MEDIAN / PGF2a/AA (ratio) MEAN / PGF2a/AA (ratio) MEDIAN / 13-HODE/AA (ratio) MEAN / 13-HODE/AA (ratio) MEDIAN / 9-HODE/LA (ratio) MEAN / 9-HODE/LA (ratio) MEDIAN / 11-HETE MEAN / 11-HETE MEDIAN / 5-HETE MEAN / 5-HETE MEDIAN / 11-HETE/AA (ratio) MEAN / 11-HETE/AA (ratio) MEDIAN / 5-HETE/AA (ratio) MEAN / 5-HETE/AA (ratio) MEDIAN: 500 mg/kg oral gavage
Method: Thioglycollate/Zymosan—Induced Peritonitis Model: Wild-type mice were administered either 500 mg/kg body weight of disodium disuccinate astaxanthin (ddAst/Cardax™) in an oil emulsion vehicle, or normal saline (NS) as a negative control, by oral gavage at 24 hours intervals beginning 7 days prior to the induction of peritonitis. Peritonitis was induced experimentally as follows: mice were injected intraperitoneally with 1 ml of 4% by weight thioglycollate (Tg) broth, to induce the recruitment of proinflammatory cells to the peritoneum. Either 16 hours or 72 hours after recruitment, approximately half of the mice were injected intraperitoneally with 250 mg/kg body weight of zymosan (Z) for a further 4 hours. The mice not receiving zymosan underwent no further treatment. Peritoneal lavage was performed in control animals or animals treated with (ddAst) 16 hours post Tg injection, or 20 h following the combination of both Tg injection (16 hours) followed by Z injection (4 hours), as indicated (Tg/Z). Peritoneal lavages were performed with phosphate-buffered saline containing antioxidant (0.1 mM butylated hydroxytoluene (BHT)) and 2 mM of the metal chelator diethylenetriamine pentaacetic acid (DTPA) according to established practices in the art. The lavage suspensions were transferred to screw-capped tubes under an argon atmosphere, and immediately centrifuged at 1000 rpm in a table top microcentrifuge for 10 min at 4° C. to remove whole cells and debris. All analyses of lipid peroxidation products was performed on cell-free lavage supernatants. Cell pellets were resuspended in phosphate-buffered saline containing 0.1 mM BHT and 0.1 mM DTPA, and differential cell counts (macrophages, monocytes, eosinophils, lymphocytes, neutrophils, and erythrocytes) were performed on cytospun preparations of isolated cells according to established procedures in the art.
Electrospray ionization tandem mass spectrometry was used to simultaneously quantify individual molecular species of HETEs, HPETEs, the prostaglandin PGF2α, F2-isoprostanoids, hydroxy- and hydroperoxy-octadecadienoic acids (H(P)ODEs), and their precursors, arachidonic acid (AA) and linoleic acid (LA). Additionally, the molar ratios of o-tyrosine (oY/F). were measured.

[1] = 16 Hour Thioglycollate/4 Hour Zymosan, P-VALUE 0.165
[2] = 16 Hour Thioglycollate/4 Hour Zymosan, P-VALUE 0.250
[3] = 16 Hour Thioglycollate/4 Hour Zymosan, P-VALUE 0.272 NP
[4] = 16 Hour Thioglycollate/4 Hour Zymosan, P-VALUE 0.299
[5] = 16 Hour Thioglycollate/4 Hour Zymosan, P-VALUE 0.354
[6] = 16 Hour Thioglycollate/4 Hour Zymosan, P-VALUE 0.557
[7] = 16 Hour Thioglycollate/4 Hour Zymosan, P-VALUE 0.685 NP
[8] = 16 Hour Thioglycollate/4 Hour Zymosan, P-VALUE 0.772 NP
[9] = 16 Hour Thioglycollate/4 Hour Zymosan, P-VALUE 0.862 NP
[10] = 16 Hour Thioglycollate/4 Hour Zymosan, P-VALUE 0.900
[11] = 16 Hour Thioglycollate/4 Hour Zymosan, P-VALUE 0.954 NP
[12] = 16 Hour Thioglycollate/4 Hour Zymosan, P-VALUE 1.000 NP
[13] = 16 Hour Thioglycollate/4 Hour Zymosan
[14] = 16 Hour Thioglycollate, P-VALUE 0.018
[15] = 16 Hour Thioglycollate, P-VALUE 0.040
[16] = 16 Hour Thioglycollate, P-VALUE 0.096
[17] = 16 Hour Thioglycollate, P-VALUE 0.120
[18] = 16 Hour Thioglycollate, P-VALUE 0.172
[19] = 16 Hour Thioglycollate, P-VALUE 0.227 NP
[20] = 16 Hour Thioglycollate, P-VALUE 0.318 NP
[21] = 16 Hour Thioglycollate, P-VALUE 0.372 NP
[22] = 16 Hour Thioglycollate, P-VALUE 0.564 NP
[23] = 16 Hour Thioglycollate, P-VALUE 0.793 NP
[24] = 16 Hour Thioglycollate, P-VALUE 0.875 NP
[25] = 16 Hour Thioglycollate, P-VALUE 0.958 NP
[26] = 16 Hour Thioglycollate, P-VALUE 0.982
[27] = 16 Hour Thioglycollate, P-VALUE 0.986
[28] = 72 Hour Thioglycollate/4 Hour Zymosan, P-VALUE 0.001 NP
[29] = 72 Hour Thioglycollate/4 Hour Zymosan, P-VALUE 0.002 NP
[30] = 72 Hour Thioglycollate/4 Hour Zymosan, P-VALUE 0.006
[31] = 72 Hour Thioglycollate/4 Hour Zymosan, P-VALUE 0.008
[32] = 72 Hour Thioglycollate/4 Hour Zymosan, P-VALUE 0.010
[33] = 72 Hour Thioglycollate/4 Hour Zymosan, P-VALUE 0.018 NP
[34] = 72 Hour Thioglycollate/4 Hour Zymosan, P-VALUE 0.056 NP
[35] = 72 Hour Thioglycollate/4 Hour Zymosan, P-VALUE 0.118 NP
[36] = 72 Hour Thioglycollate/4 Hour Zymosan, P-VALUE 0.271
[37] = 72 Hour Thioglycollate/4 Hour Zymosan, P-VALUE 0.385 NP
[38] = 72 Hour Thioglycollate/4 Hour Zymosan, P-VALUE 0.629

`CC1=C(/C=C/C(C)=C/C=C/C(C)=C/C=C/C=C(C)/C=C/C=C(C)/C=C/C2=C(C)C(=O)C(OC(=O)CCC(=O)O)CC2(C)C)C(C)(C)CC(OC(=O)CCC(=O)O)C1=O` (stereo not drawn) [Cardax, disodium disuccinate astaxanthin] was tested, and the “13-HODE MEAN” value [1] was 5.689 pmol, the “13-HODE MEDIAN” value [1] was 4.768 pmol and the “Prostaglandin F2α (PGF2α) MEAN” value [2] was 0.038 pmol. For the same compound, the “Prostaglandin F2α (PGF2α) MEDIAN” value [2] was 0.035 pmol, the “9-HETE/AA (ratio) MEAN” value [3] was 0.529 and the “9-HETE/AA (ratio) MEDIAN” value [3] was 0.472. The “9-HODE MEAN” value [4] was 2.767 pmol, the “9-HODE MEDIAN” value [4] was 2.825 pmol and the “9-HETE MEAN” value [5] was 0.559 pmol. For the same compound, the “9-HETE MEDIAN” value [5] was 0.612 pmol, the “Linoleic Acid MEAN” value [6] was 13158 pmol and the “Linoleic Acid MEDIAN” value [6] was 10509 pmol. For the same compound, the “Arachidonic Acid MEAN” value [7] was 1208.5 pmol, the “Arachidonic Acid MEDIAN” value [7] was 1039.6 pmol and the “PGF2a/AA (ratio) MEAN” value [7] was 0.038. For the same compound, the “PGF2a/AA (ratio) MEDIAN” value [7] was 0.025, the “13-HODE/AA (ratio) MEAN” value [8] was 0.456 and the “13-HODE/AA (ratio) MEDIAN” value [8] was 0.376. The “9-HODE/LA (ratio) MEAN” value [9] was 0.245, the “9-HODE/LA (ratio) MEDIAN” value [9] was 0.201 and the “11-HETE MEAN” value [9] was 0.654 pmol. The “11-HETE MEDIAN” value [9] was 0.450 pmol, the “5-HETE MEAN” value [10] was 1.082 pmol and the “5-HETE MEDIAN” value [10] was 0.953 pmol. The “11-HETE/AA (ratio) MEAN” value [11] was 0.669, the “11-HETE/AA (ratio) MEDIAN” value [11] was 0.453 and the “5-HETE/AA (ratio) MEAN” value [12] was 0.997. The “5-HETE/AA (ratio) MEDIAN” value [12] was 0.770, the “5-oxo-ETE (pmol), MEAN” value [13] was 0.085 pmol and the “5-oxo-ETE (ratio), MEAN” value [13] was 0.080 ratio. For the same compound, the “8-iso-F2a (pmol), MEAN” value [13] was 0.012 pmol, the “8-iso-F2a/AA (ratio), MEAN” value [13] was 0.011 ratio and the “5-oxo-ETE (pmol), MEDIAN” value [13] was 0.083 pmol. The “5-oxo-ETE (ratio), MEDIAN” value [13] was 0.081 ratio, the “8-iso-F2a (pmol), MEDIAN” value [13] was 0.000 pmol and the “8-iso-F2a/AA (ratio), MEDIAN” value [13] was 0.000 ratio. For the same compound, the “Arachidonic Acid MEAN” value [14] was 1791.6 pmol, the “Arachidonic Acid MEDIAN” value [14] was 1854.3 pmol and the “Linoleic Acid MEAN” value [15] was 22739 pmol. For the same compound, the “Linoleic Acid MEDIAN” value [15] was 22907 pmol, the “13-HODE/AA (ratio) MEAN” value [16] was 0.905 and the “13-HODE/AA (ratio) MEDIAN” value [16] was 0.920. The “9-HODE MEAN” value [17] was 5.367 pmol, the “9-HODE MEDIAN” value [17] was 3.831 pmol and the “Prostaglandin F2α (PGF2α) MEAN” value [18] was 0.037 pmol. The “Prostaglandin F2α (PGF2α) MEDIAN” value [18] was 0.033 pmol, the “9-HETE/AA (ratio) MEAN” value [19] was 0.476 and the “9-HETE/AA (ratio) MEDIAN” value [19] was 0.448. The “5-HETE MEAN” value [20] was 0.334 pmol, the “5-HETE MEDIAN” value [20] was 0.255 pmol and the “11-HETE MEAN” value [21] was 0.434 pmol. The “11-HETE MEDIAN” value [21] was 0.329 pmol, the “9-HODE/LA (ratio) MEAN” value [22] was 0.292 and the “9-HODE/LA (ratio) MEDIAN” value [22] was 0.255. For the same compound, the “11-HETE/AA (ratio) MEAN” value [23] was 0.239, the “11-HETE/AA (ratio) MEDIAN” value [23] was 0.195 and the “5-HETE/AA (ratio) MEAN” value [24] was 0.218. For the same compound, the “5-HETE/AA (ratio) MEDIAN” value [24] was 0.151, the “9-HETE MEAN” value [25] was 0.826 pmol and the “9-HETE MEDIAN” value [25] was 0.718 pmol. For the same compound, the “13-HODE MEAN” value [26] was 18.838 pmol, the “13-HODE MEDIAN” value [26] was 15.191 pmol and the “PGF2a/AA (ratio) MEAN” value [27] was 0.034. For the same compound, the “PGF2a/AA (ratio) MEDIAN” value [27] was 0.018, the “5-oxo-ETE (pmol), MEAN” value (16 Hour Thioglycollate) was 0.128 pmol and the “5-oxo-ETE (ratio), MEAN” value (16 Hour Thioglycollate) was 0.056 ratio. For the same compound, the “8-iso-F2a (pmol), MEAN” value (16 Hour Thioglycollate) was 0.052 pmol, the “8-iso-F2a/AA (ratio), MEAN” value (16 Hour Thioglycollate) was 0.044 ratio and the “5-oxo-ETE (pmol), MEDIAN” value (16 Hour Thioglycollate) was 0.078 pmol. For the same compound, the “5-oxo-ETE (ratio), MEDIAN” value (16 Hour Thioglycollate) was 0.067 ratio, the “8-iso-F2a (pmol), MEDIAN” value (16 Hour Thioglycollate) was 0.069 pmol and the “8-iso-F2a/AA (ratio), MEDIAN” value (16 Hour Thioglycollate) was 0.034 ratio. For the same compound, the “Arachidonic Acid MEAN” value [28] was 3554.3 pmol, the “Arachidonic Acid MEDIAN” value [28] was 2429.5 pmol and the “5-HETE/AA (ratio) MEAN” value [29] was 0.369. The “5-HETE/AA (ratio) MEDIAN” value [29] was 0.333, the “9-HODE/LA (ratio) MEAN” value [30] was 0.132 and the “9-HODE/LA (ratio) MEDIAN” value [30] was 0.134. For the same compound, the “11-HETE/AA (ratio) MEAN” value [31] was 0.253, the “11-HETE/AA (ratio) MEDIAN” value [31] was 0.237 and the “PGF2a/AA (ratio) MEAN” value [32] was 0.011. The “PGF2a/AA (ratio) MEDIAN” value [32] was 0.012, the “Linoleic Acid MEAN” value [33] was 33183 pmol and the “Linoleic Acid MEDIAN” value [33] was 27585 pmol. The “9-HETE/AA (ratio) MEAN” value [34] was 0.253, the “9-HETE/AA (ratio) MEDIAN” value [34] was 0.244 and the “9-HETE MEAN” value [35] was 0.917 pmol. For the same compound, the “9-HETE MEDIAN” value [35] was 0.687 pmol, the “13-HODE/AA (ratio) MEAN” value [35] was 0.229 and the “13-HODE/AA (ratio) MEDIAN” value [35] was 0.186. The “13-HODE MEAN” value [36] was 7.181 pmol, the “13-HODE MEDIAN” value [36] was 6.732 pmol and the “5-HETE MEAN” value [37] was 1.236 pmol. The “5-HETE MEDIAN” value [37] was 0.997 pmol, the “Prostaglandin F2α (PGF2α) MEAN” value [38] was 0.040 pmol and the “Prostaglandin F2α (PGF2α) MEDIAN” value [38] was 0.039 pmol.
